Reference: publication PMC12028158, “Synthesis and In Vitro Evaluation of the Anticancer Effect of Novel Phosphonium Vindoline Derivatives” (International Journal of Molecular Sciences, 2025)

Columns and labels:
Format in all cases: cell-based
SK-MEL-28 [1] = experiment: NCI60 one-dose screen; details: Homo sapiens, SK-MEL-28, read-out: Growth percent
CAKI-1 = experiment: NCI60 one-dose screen; details: Homo sapiens, CAKI-1, read-out: Growth percent
HT29 = experiment: NCI60 one-dose screen; details: Homo sapiens, HT-29, read-out: Growth percent
HL-60(TB) = experiment: NCI60 one-dose screen; details: Homo sapiens, HL-60, read-out: Growth percent
HCT-15 [2] = experiment: NCI60 one-dose screen; details: Homo sapiens, HCT-15, read-out: Growth percent
RXF 393 [3] = experiment: NCI60 one-dose screen; details: Homo sapiens, RXF 393, read-out: Growth percent
SNB-19 = experiment: NCI60 one-dose screen; details: Homo sapiens, SNB-19, read-out: Growth percent
HOP-62 = experiment: NCI60 one-dose screen; details: Homo sapiens, HOP-62, read-out: Growth percent
NCI-H322M [4] = experiment: NCI60 one-dose screen; details: Homo sapiens, read-out: Growth percent
CCRF-CEM = experiment: NCI60 one-dose screen; details: Homo sapiens, read-out: Growth percent
NCI-H23 = experiment: NCI60 one-dose screen; details: Homo sapiens, NCI-H23, read-out: Growth percent
SK-MEL-2 = experiment: NCI60 one-dose screen; details: Homo sapiens, SK-MEL-2, read-out: Growth percent
OVCAR-3 [5] = experiment: NCI60 one-dose screen; details: Homo sapiens, OVCAR-3, read-out: Growth percent
A549/ATCC = experiment: NCI60 one-dose screen; details: Homo sapiens, A549, read-out: Growth percent
UACC-62 = experiment: NCI60 one-dose screen; details: Homo sapiens, UACC-62, read-out: Growth percent
NCI-H226 = experiment: NCI60 one-dose screen; details: Homo sapiens, NCI-H226, read-out: Growth percent
BT-549 [6] = experiment: NCI60 one-dose screen; details: Homo sapiens, BT-549, read-out: Growth percent
SNB-75 = experiment: NCI60 one-dose screen; details: Homo sapiens, SNB-75, read-out: Growth percent
MALME-3M [7] = experiment: NCI60 one-dose screen; details: Homo sapiens, Malme-3M, read-out: Growth percent
OVCAR-4 = experiment: NCI60 one-dose screen; details: Homo sapiens, OVCAR-4, read-out: Growth percent
LOX IMVI = experiment: NCI60 one-dose screen; details: Homo sapiens, read-out: Growth percent
OVCAR-8 = experiment: NCI60 one-dose screen; details: Homo sapiens, OVCAR-8, read-out: Growth percent
HCT-116 = experiment: NCI60 one-dose screen; details: Homo sapiens, HCT-116, read-out: Growth percent
UO-31 = experiment: NCI60 one-dose screen; details: Homo sapiens, UO-31, read-out: Growth percent
HS 578T = experiment: NCI60 five-dose screen; details: Homo sapiens, Hs-578T
HCT-15 [8] = experiment: NCI60 five-dose screen; details: Homo sapiens, HCT-15
RPMI-8226 = experiment: NCI60 five-dose screen; details: Homo sapiens, RPMI-8226
Renal Cancer panel = experiment: NCI60 five-dose screen, panel mean; details: Homo sapiens, read-out: GI50 Mean
NCI/ADR-RES = experiment: NCI60 five-dose screen; details: Homo sapiens
NCI-H322M [9] = experiment: NCI60 five-dose screen; details: Homo sapiens
Breast Cancer panel = experiment: NCI60 five-dose screen, panel mean; details: Homo sapiens, read-out: GI50 Mean
MALME-3M [10] = experiment: NCI60 five-dose screen; details: Homo sapiens, Malme-3M
BT-549 [11] = experiment: NCI60 five-dose screen; details: Homo sapiens, BT-549
CNS Cancer panel = experiment: NCI60 five-dose screen, panel mean; details: Homo sapiens, read-out: GI50 Mean
RXF 393 [12] = experiment: NCI60 five-dose screen; details: Homo sapiens, RXF 393
SK-OV-3 = experiment: NCI60 five-dose screen; details: Homo sapiens, SK-OV-3
Leukemia panel = experiment: NCI60 five-dose screen, panel mean; details: Homo sapiens, read-out: GI50 Mean
SK-MEL-28 [13] = experiment: NCI60 five-dose screen; details: Homo sapiens, SK-MEL-28
Ovarian Cancer panel = experiment: NCI60 five-dose screen, panel mean; details: Homo sapiens, read-out: GI50 Mean
SF-539 = experiment: NCI60 five-dose screen; details: Homo sapiens, SF-539
OVCAR-3 [14] = experiment: NCI60 five-dose screen; details: Homo sapiens, OVCAR-3
HCC-2998 = experiment: NCI60 five-dose screen; details: Homo sapiens, HCC 2998
SF-268 = experiment: NCI60 five-dose screen; details: Homo sapiens, SF-268
COLO 205 = experiment: NCI60 five-dose screen; details: Homo sapiens, COLO 205

Question: With `CCC12C=CCN3CC[C@@]4(c5ccc(OC)cc5N(C)[C@H]4[C@@](O)(C(=O)OC)[C@@H]1OC(C)=O)[C@@H]32` (some centres unmarked) [compound 2, vindoline] as the compound, how does the activity at 10 µM (SK-MEL-28 [1]) read?
Answer: The activity at 10 µM was 106%.

Question: And the activity at 10 µM (CAKI-1)?
Answer: Its activity at 10 µM is 97.5%.

Question: And the activity at 10 µM (HT29)?
Answer: The activity at 10 µM was 98.5%.

Question: What about the activity at 10 µM (HL-60(TB)) of the same compound?
Answer: Its activity at 10 µM is 104%.

Question: What about the activity at 10 µM (HCT-15 [2]) of the same compound?
Answer: The activity at 10 µM was 99%.

Question: And the activity at 10 µM (RXF 393 [3])?
Answer: The activity at 10 µM was 104%.

Question: What about the activity at 10 µM (SNB-19) of the same compound?
Answer: Its activity at 10 µM is 96.6%.

Question: And the activity at 10 µM (HOP-62)?
Answer: Its activity at 10 µM is 92.2%.

Question: And the activity at 10 µM (NCI-H322M [4])?
Answer: The activity at 10 µM was 97.8%.

Question: What about the activity at 10 µM (CCRF-CEM) of the same compound?
Answer: Its activity at 10 µM is 96.5%.

Question: And the activity at 10 µM (NCI-H23)?
Answer: Its activity at 10 µM is 103%.

Question: And the activity at 10 µM (SK-MEL-2)?
Answer: Its activity at 10 µM is 107%.

Question: And the activity at 10 µM (OVCAR-3 [5])?
Answer: Its activity at 10 µM is 112%.

Question: And the activity at 10 µM (A549/ATCC)?
Answer: The activity at 10 µM was 93.5%.

Question: And the activity at 10 µM (UACC-62)?
Answer: Its activity at 10 µM is 94.7%.

Question: What about the activity at 10 µM (NCI-H226) of the same compound?
Answer: Its activity at 10 µM is 104%.

Question: And the activity at 10 µM (BT-549 [6])?
Answer: The activity at 10 µM was 114%.

Question: And the activity at 10 µM (SNB-75)?
Answer: Its activity at 10 µM is 73.1%.

Question: What about the activity at 10 µM (MALME-3M [7]) of the same compound?
Answer: Its activity at 10 µM is 98%.

Question: And the activity at 10 µM (OVCAR-4)?
Answer: Its activity at 10 µM is 98.8%.

Question: And the activity at 10 µM (LOX IMVI)?
Answer: Its activity at 10 µM is 99.4%.

Question: What about the activity at 10 µM (OVCAR-8) of the same compound?
Answer: Its activity at 10 µM is 99.8%.

Question: What about the activity at 10 µM (HCT-116) of the same compound?
Answer: The activity at 10 µM was 104%.

Question: What about the activity at 10 µM (UO-31) of the same compound?
Answer: The activity at 10 µM was 83.9%.

Question: Which activity at 10 µM (SK-MEL-28 [1]) does the source give for `CC[C@]12C=CCN3CC[C@@]4(c5ccc(OC)cc5N(C)[C@H]4[C@@](O)(C(=O)OC)[C@@H]1OC(=O)CCCC[P+](c1ccccc1)(c1ccccc1)c1ccccc1)[C@@H]32` [compound 4, reference compound] here?
Answer: The activity at 10 µM was 12.5%.

Question: And the GI50 (HS 578T)?
Answer: The GI50 was 1230 nM.

Question: What about the activity at 10 µM (CAKI-1) of the same compound?
Answer: The activity at 10 µM was 85.9%.

Question: And the activity at 10 µM (HT29)?
Answer: Its activity at 10 µM is 2.65%.

Question: And the GI50 (HCT-15 [8])?
Answer: The GI50 was 18600 nM.

Question: And the activity at 10 µM (HL-60(TB))?
Answer: Its activity at 10 µM is -63.5%.

Question: What about the activity at 10 µM (HCT-15 [2]) of the same compound?
Answer: Its activity at 10 µM is 99.3%.

Question: What about the GI50 (RPMI-8226) of the same compound?
Answer: The GI50 was 497 nM.

Question: What about the activity at 10 µM (RXF 393 [3]) of the same compound?
Answer: The activity at 10 µM was -13.3%.

Question: What about the activity at 10 µM (SNB-19) of the same compound?
Answer: Its activity at 10 µM is 12.7%.

Question: And the activity at 10 µM (HOP-62)?
Answer: Its activity at 10 µM is 26.4%.

Question: What about the GI50 (Renal Cancer panel) of the same compound?
Answer: The GI50 was 4870 nM.

Question: What about the activity at 10 µM (NCI-H322M [4]) of the same compound?
Answer: The activity at 10 µM was 47%.

Question: And the GI50 (NCI/ADR-RES)?
Answer: The GI50 was over 100000 nM.

Question: And the GI50 (NCI-H322M [9])?
Answer: The GI50 was 3000 nM.

Question: And the GI50 (Breast Cancer panel)?
Answer: Its GI50 is 500 nM.

Question: What about the activity at 10 µM (CCRF-CEM) of the same compound?
Answer: Its activity at 10 µM is 15.6%.

Question: What about the GI50 (MALME-3M [10]) of the same compound?
Answer: Its GI50 is 273 nM.

Question: What about the activity at 10 µM (NCI-H23) of the same compound?
Answer: Its activity at 10 µM is 6.4%.

Question: What about the GI50 (BT-549 [11]) of the same compound?
Answer: Its GI50 is 583 nM.

Question: And the GI50 (CNS Cancer panel)?
Answer: The GI50 was 940 nM.

Question: And the activity at 10 µM (SK-MEL-2)?
Answer: Its activity at 10 µM is -41.6%.

Question: What about the activity at 10 µM (OVCAR-3 [5]) of the same compound?
Answer: Its activity at 10 µM is -0.29%.

Question: And the GI50 (RXF 393 [12])?
Answer: Its GI50 is 308 nM.

Question: What about the activity at 10 µM (A549/ATCC) of the same compound?
Answer: The activity at 10 µM was 22.1%.

Question: What about the GI50 (SK-OV-3) of the same compound?
Answer: Its GI50 is 725 nM.

Question: And the GI50 (Leukemia panel)?
Answer: The GI50 was 600 nM.

Question: And the activity at 10 µM (UACC-62)?
Answer: Its activity at 10 µM is -6.54%.

Question: What about the GI50 (SK-MEL-28 [13]) of the same compound?
Answer: The GI50 was 532 nM.

Question: And the activity at 10 µM (NCI-H226)?
Answer: The activity at 10 µM was 15.1%.

Question: And the activity at 10 µM (BT-549 [6])?
Answer: Its activity at 10 µM is -1.04%.

Question: What about the GI50 (Ovarian Cancer panel) of the same compound?
Answer: The GI50 was 15100 nM.

Question: What about the GI50 (SF-539) of the same compound?
Answer: The GI50 was 1300 nM.

Question: And the activity at 10 µM (SNB-75)?
Answer: Its activity at 10 µM is -12.8%.

Question: What about the activity at 10 µM (MALME-3M [7]) of the same compound?
Answer: Its activity at 10 µM is -35.8%.

Question: What about the activity at 10 µM (OVCAR-4) of the same compound?
Answer: The activity at 10 µM was 5.22%.

Question: And the activity at 10 µM (LOX IMVI)?
Answer: The activity at 10 µM was 18.5%.

Question: What about the activity at 10 µM (OVCAR-8) of the same compound?
Answer: Its activity at 10 µM is 18.6%.

Question: And the GI50 (OVCAR-3 [14])?
Answer: The GI50 was 398 nM.

Question: And the activity at 10 µM (HCT-116)?
Answer: The activity at 10 µM was 8.03%.

Question: What about the GI50 (HCC-2998) of the same compound?
Answer: Its GI50 is 367 nM.

Question: And the GI50 (SF-268)?
Answer: The GI50 was 634 nM.

Question: What about the GI50 (COLO 205) of the same compound?
Answer: The GI50 was 242 nM.

Question: What about the activity at 10 µM (UO-31) of the same compound?
Answer: Its activity at 10 µM is 81.9%.
